In patent publication US20080187935A1, “Homo and Heterodimer Proteins of the Abcg Family, Methods For Detection and Screening Modulators Thereof” (priority 2004, published 2008):
Blank lines part the entries; values can stand above or below the molecule they belong to.

Assays:
human ABCG1 = target: T1, human ABCG1 (Homo sapiens, UniProt P45844); experiment: vanadate-sensitive ATPase activity of ABCG1 in isolated Sf9 membranes; type: biochemical; conditions: for effect on ABCG1 ATPase activity (in words): Sf9 membranes, 3.3 mM MgATP
T1 construct: made in house; host or cells: Sf9 insect cells (baculovirus), isolated membranes
Procedure: (§1) Recombinant baculoviruses carrying transporter cDNA were generated with BaculoGold Transfection Kit (Pharmingen), in accordance with the manufacturer's protocol. The titer of virus supernatants were determined in order to express the same amount of each proteins, Sf9 (Spodoptera frugiperda ovarian) cells (Invitrogen) were infected and cultured according to the procedures described previously (19). Briefly, about 3×10^7 cells were infected with 3 ml of virus supernatant in case of homodimer expression and 1.5-1.5 ml of virus supernatants in case of heterodimer expression. The virus-infected Sf9 cells were cultured in T150 culture flasks with 30 ml of medium for the times indicated. The cells were harvested by scraping them into Tris-mannitol buffer (50 mM Tris, pH 7.0, with HCl, containing 300 mM mannitol and 0.5 mM phenylmethylsulfonyl fluoride).
For membrane preparation the cells were lysed and homogenized using a glass-Teflon tissue homogenizer in TMEP (50 mM Tris, pH 7.0, with HCl, containing 50 mM mannitol, 2 mM EGTA-Tris, 10 µg/ml leupeptin, 8 µg/ml aprotinin, 0.5 mM phenylmethylsulfonyl fluoride, and 2 mM dithiothreitol), and the undisrupted cells and nuclear debris were removed by centrifugation at 500×g for 10 min. The supernatant fluid was then centrifuged for 60 min at 100,000×g and the pellet containing the membranes resuspended in TMEP at a protein concentration of 2-3 mg/ml. All procedures were carried out at 4° C., and the membranes were stored at −70° C.
(§2) The ATPase activity of the isolated Sf9 cell membranes was estimated by measuring inorganic phosphate liberation. Membrane suspensions (about 20 μg of membrane protein, as determined by a modified Lowry method) were incubated at 37° C. for 20-min in 0.15 ml of a medium containing 40 mM MOPS-Tris (pH 7.0), 0.5 mM EGTA-Tris (pH 7.0), 2 mM dithiothreitol, 50 mM KCl, 1 mM ouabain and 5 mM sodium azide, and the ATPase reaction was started by the addition of 3.3 mM MgATP. The indicated drugs (obtained from Sigma) were added in dimethyl sulfoxide. The final concentration of dimethyl sulfoxide in the assay medium was 1%. […] The reactions were stopped by the addition of 0.1 ml of 5% SDS solution and the amount of inorganic phosphate determined immediately. Inorganic phosphate was measured by colorimetric reaction (19). The points plotted in the figures indicate the means of triplicate determinations.

ABCG1/ABCG4 = target: T2, ABCG1/ABCG4 (Homo sapiens, UniProt P45844+Q9H172); experiment: ATPase activity of co-expressed ABCG1/ABCG4 in Sf9 membranes; type: biochemical; conditions: various concentrations, data not shown
T2 construct: made in house; host or cells: Sf9 insect cells co-infected with both baculoviruses, isolated membranes
Procedure: as §1, with “The cells were harvested by scraping them into Tris-mannitol buffer (50 mM Tris, pH 7.0, with HCl, containing 300 mM mannitol and 0.5 mM phenylmethylsulfonyl fluoride).” left out
as §2, with “MgATP.” for “MgATP. The indicated drugs (obtained from Sigma) were added in dimethyl sulfoxide. The final concentration of dimethyl sulfoxide in the assay medium was 1%.”, “The points plotted in the figures indicate the means of triplicate determinations.” left out

human ABCG4 = target: T3, human ABCG4 (Homo sapiens, UniProt Q9H172); experiment: vanadate-sensitive ATPase activity of ABCG4 in isolated Sf9 membranes; type: biochemical
T3 construct: made in house; host or cells: Sf9 insect cells (baculovirus), isolated membranes; cDNA from I.M.A.G.E. clone 1537140
Procedure: Recombinant baculoviruses carrying transporter cDNA were generated with BaculoGold Transfection Kit (Pharmingen), in accordance with the manufacturer's protocol. The titer of virus supernatants were determined in order to express the same amount of each proteins, Sf9 (Spodoptera frugiperda ovarian) cells (Invitrogen) were infected and cultured according to the procedures described previously (19). Briefly, about 3×10^7 cells were infected with 3 ml of virus supernatant in case of homodimer expression and 1.5-1.5 ml of virus supernatants in case of heterodimer expression. The virus-infected Sf9 cells were cultured in T150 culture flasks with 30 ml of medium for the times indicated. […] The supernatant fluid was then centrifuged for 60 min at 100,000×g and the pellet containing the membranes resuspended in TMEP at a protein concentration of 2-3 mg/ml. All procedures were carried out at 4° C., and the membranes were stored at −70° C. The ATPase activity of the isolated Sf9 cell membranes was estimated by measuring inorganic phosphate liberation. […] The indicated drugs (obtained from Sigma) were added in dimethyl sulfoxide. The final concentration of dimethyl sulfoxide in the assay medium was 1%. […] The reactions were stopped by the addition of 0.1 ml of 5% SDS solution and the amount of inorganic phosphate determined immediately. Inorganic phosphate was measured by colorimetric reaction (19). […]

ABCG2R482G = target: T4, ABCG2R482G (Homo sapiens, UniProt Q9UNQ0, R482G); conditions: Özvegy C et al., 2001, cited from earlier work
T4 construct: host or cells: Sf9 membranes
T4 sequence (Q9UNQ0 1-655 R482G): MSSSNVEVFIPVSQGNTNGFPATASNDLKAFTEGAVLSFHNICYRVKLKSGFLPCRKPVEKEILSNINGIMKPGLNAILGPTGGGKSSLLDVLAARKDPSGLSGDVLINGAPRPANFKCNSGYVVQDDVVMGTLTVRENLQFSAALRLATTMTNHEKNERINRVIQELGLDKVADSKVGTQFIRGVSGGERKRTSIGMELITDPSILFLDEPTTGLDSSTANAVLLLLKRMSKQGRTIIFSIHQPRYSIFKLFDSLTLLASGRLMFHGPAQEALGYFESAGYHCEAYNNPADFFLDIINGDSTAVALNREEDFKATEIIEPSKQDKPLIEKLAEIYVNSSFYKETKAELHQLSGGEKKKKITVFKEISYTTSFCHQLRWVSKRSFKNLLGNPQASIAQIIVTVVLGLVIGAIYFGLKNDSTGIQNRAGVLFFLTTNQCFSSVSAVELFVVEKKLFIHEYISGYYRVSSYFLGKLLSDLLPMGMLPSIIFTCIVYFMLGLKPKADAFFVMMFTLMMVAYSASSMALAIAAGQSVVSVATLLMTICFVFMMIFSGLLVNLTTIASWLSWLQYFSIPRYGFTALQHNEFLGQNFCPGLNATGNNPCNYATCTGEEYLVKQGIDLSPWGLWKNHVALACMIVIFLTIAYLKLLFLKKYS

ABCG1K124M = target: T5, ABCG1K124M (Homo sapiens, UniProt P45844, K124M); experiment: ATPase activity of catalytic site mutant ABCG1K124M in Sf9 membranes; type: biochemical; conditions: data not shown
T5 construct: made in house; host or cells: Sf9 insect cells (baculovirus), isolated membranes
Procedure: as §1, with “The cells were harvested by scraping them into Tris-mannitol buffer (50 mM Tris, pH 7.0, with HCl, containing 300 mM mannitol and 0.5 mM phenylmethylsulfonyl fluoride).” left out
as §2, with “MgATP.” for “MgATP. The indicated drugs (obtained from Sigma) were added in dimethyl sulfoxide. The final concentration of dimethyl sulfoxide in the assay medium was 1%.”, “The points plotted in the figures indicate the means of triplicate determinations.” left out

T3 sequence (Q9H172 whole entry): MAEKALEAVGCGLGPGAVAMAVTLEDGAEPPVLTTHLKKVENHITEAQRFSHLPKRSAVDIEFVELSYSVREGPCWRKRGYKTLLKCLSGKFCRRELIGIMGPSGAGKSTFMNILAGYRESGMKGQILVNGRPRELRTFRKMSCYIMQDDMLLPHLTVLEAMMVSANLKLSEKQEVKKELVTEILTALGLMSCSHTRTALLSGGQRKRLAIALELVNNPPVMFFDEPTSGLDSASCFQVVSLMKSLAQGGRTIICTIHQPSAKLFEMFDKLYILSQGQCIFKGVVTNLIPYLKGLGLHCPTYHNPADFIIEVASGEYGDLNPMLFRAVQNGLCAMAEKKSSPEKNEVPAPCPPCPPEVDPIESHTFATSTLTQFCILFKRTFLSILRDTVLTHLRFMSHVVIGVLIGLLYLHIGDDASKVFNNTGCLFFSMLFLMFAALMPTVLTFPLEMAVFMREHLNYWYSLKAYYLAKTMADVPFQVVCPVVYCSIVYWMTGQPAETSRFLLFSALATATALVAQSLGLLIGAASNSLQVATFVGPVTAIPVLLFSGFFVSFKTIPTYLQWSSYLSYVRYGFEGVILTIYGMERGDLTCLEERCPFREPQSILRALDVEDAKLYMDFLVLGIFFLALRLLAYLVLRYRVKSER

effect on ABCG1 ATPase activity (in words) (human ABCG1): could not detect a change in activity
effect on ATPase activity of co-expressed ABCG1/ABCG4 (in words) (ABCG1/ABCG4): could not detect a change in activity
effect on ABCG4 ATPase activity (in words) (human ABCG4): could not detect a change in activity
Molecule: Nc1c(O)cccc1C(=O)C[C@H](N)C(=O)O [3-OH kynurenine, 3-OH-kynurenine]

Ki (human ABCG1; inhibition of ABCG1 ATPase activity): ~0.5 µM
Molecule: NC(=NCc1ccccc1)NC(=O)c1nc(Cl)c(N)nc1N [Benzamil, benzamil]

Molecule: cyclosporin A
effect on ABCG1 ATPase activity (in words) (human ABCG1): inhibited ABCG1 ATPase activity at low concentrations

Molecule: COc1ccc2c3c([nH]c2c1)[C@H](CC(C)C)N1C(=O)[C@H](CCC(=O)OC(C)(C)C)NC(=O)[C@@H]1C3 [Ko143]
effect on ABCG1 ATPase activity (in words) (human ABCG1): no effect

effect on ABCG1 ATPase activity (in words) (human ABCG1): inhibited ABCG1
Molecule: N[C@@H](Cc1cc(I)c(Oc2cc(I)c(O)c(I)c2)c(I)c1)C(=O)O [L-thyroxine]

Molecule: Nc1ncnc2c1ncn2[C@@H]1O[C@H](COP(=O)(O)OP(=O)(O)OP(=O)(O)O)[C@@H](O)[C@H]1O [ATP]
Km (human ABCG1; with or without 100 μM rhodamine123, read-out: Km for ATP): ~500 µM
Km (ABCG2R482G; read-out: Km for ATP): ~600 µM

Molecule: rhodamine123
increase of ATPase activity of ABCG1 (human ABCG1; 20 μM rhodamine123): increased almost two fold
rhodamine123 stimulated ATPase activity (human ABCG1; ABCG1 co-expressed with β-Gal, 100 μM rhodamine123, units = nanomoles Pi/mg membrane protein/min, basal 19.2±1.24, SEM, n=3): 33.6±0.65 units
effect on ABCG1 ATPase activity (in words) (human ABCG1): substantially stimulate
EC50 (human ABCG1; stimulation of ABCG1 ATPase activity, read-out: Kact): ~10 µM
stimulation of ABCG2R482G mutant ATPase activity (ABCG2R482G): about 1.4 fold
effect on ABCG4 ATPase activity (in words) (human ABCG4): no effect
effect on ABCG1K124M ATPase activity (in words) (ABCG1K124M): negligible
